Laboratory results: patent US11787780B2 (CORCEPT THERAPEUTICS INCORPORATED, priority 2020, dated 2023)

Key:
[1] = system: induction of TAT by dexamethasone in HepG2 cells; assay: Hep G2 TAT assay (inhibition of dexamethasone-induced TAT); format: cell-based, human; details: challenge of 100 nM dexamethasone, IC50 converted to Ki by Cheng and Prusoff equation
[2] = target: glucocorticoid receptor (GR) recombinant ligand binding domain (LBD) (Homo sapiens (Human), UniProt P04150); assay: GR binding fluorescence polarisation (FP) assay; details: displacement of fluorescently tagged ligand
Method: Binding of test compounds to the glucocorticoid receptor (GR) is determined using a fluorescence polarisation (FP) assay utilising a recombinant ligand binding domain (LBD) of GR. The test compounds are assessed by their ability to displace a fluorescently tagged ligand and detection of the resulting decrease in fluorescence polarisation.

Chain of glucocorticoid receptor (GR) recombinant ligand binding domain (LBD) (P04150 524-758): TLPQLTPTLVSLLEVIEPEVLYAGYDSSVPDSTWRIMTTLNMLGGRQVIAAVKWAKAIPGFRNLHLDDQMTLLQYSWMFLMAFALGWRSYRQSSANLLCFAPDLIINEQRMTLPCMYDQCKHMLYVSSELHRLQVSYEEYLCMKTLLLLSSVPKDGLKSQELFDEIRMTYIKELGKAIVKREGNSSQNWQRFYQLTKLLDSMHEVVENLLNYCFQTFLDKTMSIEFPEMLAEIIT

IC50 [2] [nM] | Compound | Ki [1] [nM]
26 | COc1cc2c(cnn2-c2ccc(F)cc2)cc1C1(Cc2ccc(F)cc2)CCN(S(=O)(=O)c2cnn(C)n2)C1 (centres unmarked) [Example 219, 5-(3-(4-fluorobenzyl)-1-((2-methyl-2H-1,2,3-triazol-4-yl)sulfonyl)pyrrolidin-3-yl)-1-(4-fluorophenyl)-6-methoxy-1H-indazole] | 13
197 | Cc1cc2c(cnn2-c2ccc(F)cc2)cc1C1(Cc2ccc(C(F)(F)F)cc2)CCN(S(=O)(=O)c2cnn(C)c2)C1 (centres unmarked) [Example 178] | 30
8 | Cc1cc2c(cnn2-c2ccc(F)cc2)cc1N1CCC(C)(NS(C)(=O)=O)CC1 [Example 130] | 144
12 | Cc1cc2c(cnn2-c2ccc(F)cc2)cc1C1(Cc2ccccc2)CCN(C(=O)c2cscn2)C1 (centres unmarked) [Example 235] | 34
214 | CCCn1cc(S(=O)(=O)N2CC[C@H](c3ccc4c(cnn4-c4ccc(F)cc4)c3)C[C@H]2C)cn1 [Example 10, 1-(4-fluorophenyl)-5-((2R,4S)-2-methyl-1-((1-propyl-1H-pyrazol-4-yl)sulfonyl)piperidin-4-yl)-1H-indazole] | 238
162 | CCCn1cc(S(=O)(=O)N2CCN(c3cc4cnn(-c5ccc(F)cc5)c4cc3C)C(c3ccccc3)C2)cn1 (centres unmarked) [Example 86] | 864
70 | COc1cc2c(cnn2-c2ccc(F)cc2)cc1C1(Cc2ccccc2)CCN(C(=O)c2nccs2)C1 (centres unmarked) [Example 233, (3-benzyl-3-(1-(4-fluorophenyl)-6-methoxy-1H-indazol-5-yl)pyrrolidin-1-yl)(thiazol-2-yl)methanone] | 52
180 | Cc1cc2c(cnn2-c2ccn(C)n2)cc1C1(Cc2ccccc2)CCN(S(=O)(=O)c2cnn(C)n2)C1 (centres unmarked) [Example 259, 5-(3-benzyl-1-((2-methyl-2H-1,2,3-triazol-4-yl)sulfonyl)pyrrolidin-3-yl)-6-methyl-1-(1-methyl-1H-pyrazol-3-yl)-1H-indazole] | 540
44 | Cc1cc2c(cnn2-c2ccc(=O)n(C)c2)cc1C1(Cc2ccccc2)CCN(C(=O)c2ccccc2)C1 (centres unmarked) [Example 326, 5-(5-(1-benzoyl-3-benzylpyrrolidin-3-yl)-6-methyl-1H-indazol-1-yl)-1-methylpyridin-2(1H)-one] | 57
12 | Cc1cc2c(cnn2-c2ccc(=O)n(C)c2)cc1C1(Cc2ccccc2)CCN(S(=O)(=O)c2cc(F)ccc2F)C1 (centres unmarked) [Example 316, 5-(5-(3-benzyl-1-((2,5-difluorophenyl)sulfonyl)pyrrolidin-3-yl)-6-methyl-1H-indazol-1-yl)-1-methylpyridin-2(1H)-one] | 32
7.5 | COc1ccc(S(=O)(=O)N2CCC(Cc3ccccc3)(c3cc4cnn(-c5ccc(=O)n(C)c5)c4cc3C)C2)cc1 (centres unmarked) [Example 304, 5-(5-(3-benzyl-1-((4-methoxyphenyl)sulfonyl)pyrrolidin-3-yl)-6-methyl-1H-indazol-1-yl)-1-methylpyridin-2(1H)-one] | 48
8 | CCC1(c2cc3cnn(-c4ccc(F)cc4)c3cc2C)CCN(S(C)(=O)=O)C1 (centres unmarked) [Example 167] | 256
11 | Cc1cc2c(cnn2-c2ccc(=O)n(C)c2)cc1C1(Cc2ccccc2)CN(S(=O)(=O)c2cnn(C)n2)CC1C (centres unmarked) [Example 335, 5-(5-(3-benzyl-4-methyl-1-((2-methyl-2H-1,2,3-triazol-4-yl)sulfonyl)pyrrolidin-3-yl)-6-methyl-1H-indazol-1-yl)-1-methylpyridin-2(1H)-one] | 46
212 | Cc1cc2c(cnn2-c2ccc(F)cc2)cc1C1(Cc2ccc(C(F)(F)F)cc2)CCN(S(C)(=O)=O)C1 (centres unmarked) [Example 177] | 28
163 | Cc1cc2c(cnn2-c2cccc(C(=O)NC3CCOC3)c2)cc1N1CCN(S(C)(=O)=O)C2(CC2)C1 (centres unmarked) [Example 85] | 1420
6 | CCCn1cc(S(=O)(=O)N2CCC(CC)(c3cc4cnn(-c5ccc(F)cc5)c4cc3C)C2)cn1 (centres unmarked) [Example 168] | 67
114 | CNS(=O)(=O)C1CCN(c2cc3cnn(-c4ccc(F)cc4)c3cc2C)C1 (centres unmarked) [Example 28, 1-(1-(4-fluorophenyl)-6-methyl-1H-indazol-5-yl)-N-methylpyrrolidine-3-sulfonamide] | 1060
5.1 | CCCn1cc(S(=O)(=O)N2CCC(Cc3ccccc3)(c3cc4cnn(-c5ccc(=O)n(C)c5)c4cc3C)C2)cn1 (centres unmarked) [Example 318, 5-(5-(3-benzyl-1-((1-propyl-1H-pyrazol-4-yl)sulfonyl)pyrrolidin-3-yl)-6-methyl-1H-indazol-1-yl)-1-methylpyridin-2(1H)-one] | 48
14 | CCCn1cc(S(=O)(=O)N(CCOC)[C@@H]2CCN(c3cc4cnn(-c5ccc(F)cc5)c4cc3C)C2)cn1 [Example 122] | 155

IC50 [2] [nM] | Compound | Ki [1] [nM]
24 | Cc1cc2c(cnn2-c2ccc(F)cc2)cc1C1(Cc2cccc(C(F)(F)F)c2)CCN(S(C)(=O)=O)C1 (centres unmarked) [Example 175] | 20
250 | Cc1cc2c(cnn2-c2ccc(F)cc2)cc1C1(Cc2ccccc2)CCN(Cc2ccccc2)C1=O (centres unmarked) [Example 337, 1,3-dibenzyl-3-(1-(4-fluorophenyl)-6-methyl-1H-indazol-5-yl)pyrrolidin-2-one] | 110
44 | Cc1cc2c(cnn2-c2ccc(F)cc2)cc1C1(Cc2ccccc2)CCN(S(C)(=O)=O)C1=O (centres unmarked) [Example 339, 3-benzyl-3-(1-(4-fluorophenyl)-6-methyl-1H-indazol-5-yl)-1-(methylsulfonyl)pyrrolidin-2-one] | 120
4.6 | Cc1cc2c(cnn2-c2ccc(=O)n(C)c2)cc1C1(Cc2ccccc2)CCN(S(=O)(=O)c2cncc(F)c2)C1 (centres unmarked) [Example 300, 5-(5-(3-benzyl-1-((5-fluoropyridin-3-yl)sulfonyl)pyrrolidin-3-yl)-6-methyl-1H-indazol-1-yl)-1-methylpyridin-2(1H)-one] | 36
19 | Cc1cc2c(cnn2-c2ccc(F)cc2)cc1N1CCN(S(=O)(=O)c2cnn(C)c2)C2(CC2)C1 [Example 59] | 246
26 | CS(=O)(=O)N1CCC(Cc2ccccc2)(c2ccc3c(cnn3-c3ccc(F)cc3)c2)C1=O (centres unmarked) [Example 338, 3-benzyl-3-(1-(4-fluorophenyl)-1H-indazol-5-yl)-1-(methylsulfonyl)pyrrolidin-2-one] | 120
3 | Cc1cc2c(cnn2-c2ccc(=O)n(C)c2)cc1C1(Cc2ccccc2)CCN(S(=O)(=O)c2cnccc2Cl)C1 (centres unmarked) [Example 311, 5-(5-(3-benzyl-1-((4-chloropyridin-3-yl)sulfonyl)pyrrolidin-3-yl)-6-methyl-1H-indazol-1-yl)-1-methylpyridin-2(1H)-one] | 29
18 | Cc1cc2c(cnn2-c2ccc(F)c(CO)c2)cc1C1(Cc2ccccc2)CCN(S(=O)(=O)c2cnn(C)n2)C1 (centres unmarked) [Example 242, (5-(5-(3-benzyl-1-((2-methyl-2H-1,2,3-triazol-4-yl)sulfonyl)pyrrolidin-3-yl)-6-methyl-1H-indazol-1-yl)-2-fluorophenyl)methanol] | 44
25 | CCCn1cc(S(=O)(=O)N2C[C@H](C)N(c3ccc4c(cnn4-c4ccc(F)cc4)c3)C[C@@H]2C)cn1 [Example 61] | 205
8.9 | Cc1cc2c(cnn2-c2ccc(=O)n(C)c2)cc1C1(Cc2ccccc2)CCN(S(=O)(=O)c2cccc(F)c2F)C1 (centres unmarked) [Example 317, 5-(5-(3-benzyl-1-((2,3-difluorophenyl)sulfonyl)pyrrolidin-3-yl)-6-methyl-1H-indazol-1-yl)-1-methylpyridin-2(1H)-one] | 23
55 | Cc1cc2c(cnn2-c2cc(Cl)c(=O)n(C)c2)cc1C1(Cc2ccccc2)CCN(S(=O)(=O)c2cnn(C)n2)C1 (centres unmarked) [Example 248, 5-(5-(3-benzyl-1-((2-methyl-2H-1,2,3-triazol-4-yl)sulfonyl)pyrrolidin-3-yl)-6-methyl-1H-indazol-1-yl)-3-chloro-1-methylpyridin-2(1H)-one] | 260
5.4 | Cc1cc2c(cnn2-c2ccc(=O)n(C)c2)cc1C1(Cc2ccccc2)CCN(S(=O)(=O)c2ccn(C)n2)C1 (centres unmarked) [Example 276, 5-(5-(3-benzyl-1-((1-methyl-1H-pyrazol-3-yl)sulfonyl)pyrrolidin-3-yl)-6-methyl-1H-indazol-1-yl)-1-methylpyridin-2(1H)-one] | 52
58 | Cc1cc2c(cc1C1(Cc3ccccc3)CCN(S(=O)(=O)c3cnn(C)c3)C1)nnn2-c1ccc(F)cc1 (centres unmarked) [Example 172] | 83
7 | Cc1cc2c(cnn2-c2ccc(F)cc2)cc1N1CCC(C)(NS(=O)(=O)c2cnn(CC3CC3)c2)CC1 [Example 133] | 50
24 | Cc1cc2c(cnn2-c2ccc(F)cc2)cc1C1(Cc2cccnc2)CCN(S(C)(=O)=O)C1 (centres unmarked) [Example 148] | 331
58 | Cc1cc2c(cnn2-c2ccc(F)cc2)cc1N1CCC[C@H](N(C)S(=O)(=O)c2cnn(C)c2)C1 [Example 124] | 216
6.9 | [2H]C([2H])([2H])n1ncc(S(=O)(=O)N2CCC(Cc3ccccc3)(c3cc4cnn(-c5ccc(=O)n(C)c5)c4cc3C)C2)n1 (centres unmarked) [Example 296, 5-(5-(3-benzyl-1-((2-(methyl-d3)-2H-1,2,3-triazol-4-yl)sulfonyl)pyrrolidin-3-yl)-6-methyl-1H-indazol-1-yl)-1-methylpyridin-2(1H)-one] | 44
67 | CCCn1cc(S(=O)(=O)N2CCC(Cc3ccccc3)(c3cc4cnn(-c5ccc(F)cc5)c4cc3C)CC2)cn1 [Example 25, 5-(4-benzyl-1-((1-propyl-1H-pyrazol-4-yl)sulfonyl)piperidin-4-yl)-1-(4-fluorophenyl)-6-methyl-1H-indazole] | 29
